Consider two molecules from patent publication US20230097553A1 (priority 2020, published 2023).

“And” between values parts separate entries of the source, which are not always exact repeats. Equal entries are not always repeated. Where two headings read alike, the source gives them in different places.

Series [1] is described as follows: in vitro. Particulars: Syrian hamster.
Series [2] concerns Ebola virus replicon. In words: microbe, parasite or virus in culture. The series is classed as cell-based. Particulars: for IC50: Zaire ebolavirus.
For series [3], the system named is 2019-nCoV (2019BetaCoV/Wuhan/WIV04/2019 strain). In words: microbe, parasite or virus in culture. The series is classed as cell-based.
Series [4] deals with COVID-19. In words: Compassionate use in small-scale (10 cases) COVID-19 patients. The series is classed as in vivo, human.
A short description of series [5]: Drug toxicity by CellTiter-Glo (CC50), 2019-nCoV host cells. Particulars: African green monkey, Vero E6 cells. (In ATP-based viability assays light output follows the ATP content of the culture.)
Series [6] has as its system COVID-19. In words: Compassionate use in large-scale (132 cases) COVID-19 patients. To be noted: patients who took leflunomide within 18 days of admission. The series is classed as in vivo, human.
For series [7], the system named is avian influenza virus A/GuangZhou/99 (H9N2). Kind of series: organism not typed. The series is classed as cell-based.
The nature of series [8]: Antiviral activity in combination with other antiviral drugs. To be noted: combined with lopinavir, ritonavir, ribavirin, remdesivir, oseltamivir, tamiflu, lanimivir, peramivir, chloroquine.
For series [9], the system named is influenza virus A/WSN/33 (H1N1). Details: species or system BALB/c female mice. Particulars: mouse, in vivo.
In series [10] the test system is MDCK cells. Particulars: dog.
[11] abbreviates: Severe acute respiratory syndrome coronavirus 2, Vero C1008, 48 h.

Regarding `Cc1oncc1C(=O)Nc1ccc(C(F)(F)F)cc1` [Leflunomide, leflunomide], the CC50 in [1] was found to be 163 µM; in [10] it was 69.6 µM. The SI in series [2] is listed as 10.66; in [3], 21.19; in [7], 8.58. The IC50 was determined as 15.3 µM in series [2] (BSR-T7/5, 24 h); 41.5 µM in series [3] (setting [11]); 8.12 µM in series [7] (MDCK). Moreover, the “Time to negative conversion after treatment” value stood at 4 days in series [4] (leflunomide experimental group, Number of Patients 1); 8 days in [4] (leflunomide experimental group, Number of Patients 3); 5 days in series [4] (leflunomide experimental group, Number of Patients 4). In addition, the CRP after treatment in series [4] (leflunomide experimental group, n = 5, range (5-5), normal 0-10, P value 0.109 vs before) is reported as 5 mg/L. The CRP before treatment in [4] (leflunomide experimental group, n = 5, range (7.8-120.6), normal 0-10) is recorded as 37.4 mg/L. Moreover, in series [4] (small-scale (10 cases), after leflunomide treatment), the “level of C-reactive protein” value is reported as “significantly reduced”. For the same molecule, the “time to negative conversion (median)” value in series [4] (small-scale (10 cases), control group median 11 days, P=0.046) is reported as 5 days. The same molecule showed a CC50 at 72 h in series [5] of 879 µM. Also, the “time from taking leflunomide (LEF) to negative conversion (VC), median” value in series [6] is reported as 6.5 days. In series [6] (control group median 25 days), the “time from admission (AD) to negative conversion (VC), median” value was found to be 16 days. Besides, the “therapeutic effects in combination with other antiviral drugs” value in series [8] is “better therapeutic effects”. The “mice rescued from death” value in series [9] is 50% and 100%.
The molecule `C/C(O)=C(\C#N)C(=O)Nc1ccc(C(F)(F)F)cc1` [Teriflunomide, teriflunomide] displayed a CC50 in series [1] of 110 µM. Further, the SI in series [2] is recorded as 32.26; in series [3] it was 141.75; in [7] it was 53.13. For the same molecule, the IC50 worked out at 3.41 µM in series [2] (BSR-T7/5, 24 h); 0.923 µg/mL in series [2] (BSR-T7/5, read-out: drug concentration at which inhibitory efficiency on virus replication reaches 50%); 6 µM in series [3] (setting [11]); 1.62 µg/mL in series [3] (Severe acute respiratory syndrome coronavirus 2, Vero C1008, read-out: drug concentration at which inhibitory efficiency on virus replication reaches 50%); 3.36 µM in [7] (MDCK); 0.9 µg/mL in [7] (unidentified influenza virus, H9N2, MDCK, read-out: drug concentration at which inhibitory efficiency on virus replication reaches 50%).
